# Reference: paper doi:10.1101/2025.02.28.640722v1 (biorxiv, 2025)
# Square brackets hold non-standard residues; d marks the D form. Peptide text beside a SMILES is read from it. * marks the point of attachment. hCha = N[C@@H](CCC1CCCCC1)C(=O)O; Bz = O=C(c1ccccc1)*
# Biological target: Human mitochondrial ClpP (hClpP) (Homo sapiens, UniProt Q16740)
# Assay: peptidase activation
# Format: biochemical
# Details: activator at 1.5 mM, 200 nM human ClpP, no ATPase partner
# Human mitochondrial ClpP (hClpP), sequence (Q16740 57-277): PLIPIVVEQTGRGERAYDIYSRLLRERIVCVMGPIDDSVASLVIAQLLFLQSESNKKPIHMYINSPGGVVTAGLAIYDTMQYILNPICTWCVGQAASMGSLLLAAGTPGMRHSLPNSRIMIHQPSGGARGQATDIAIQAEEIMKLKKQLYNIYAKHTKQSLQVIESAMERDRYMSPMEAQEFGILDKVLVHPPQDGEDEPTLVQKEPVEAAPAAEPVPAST
structure (smiles),measurement,value
CC[C@H](C)[C@H](NC(=O)[C@H](CCC1CCCCC1)NC(=O)c1ccccc1)C(=O)O [Bz-ChEtg-Ile] (Bz-[hCha]-Ile-OH),fold activation,>15 times
